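Cultured in 96-well plates, cells were exposed to test compound for 48 hours across five concentrations. TGI denotes the concentration required for complete inhibition of growth.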
System: P388 leukemia
Test: NCI tumour cell line growth inhibition, 48 h

**Q.** How did the TGI turn out when `CS(=O)(=O)OCCCNCCCOS(C)(=O)=O` was run?
**A.** Its TGI is 6.52 mM.
